Experimental data: patent US5017618A, “Labile derivatives of ketone analogs of 3-substituted-1-alkylamino-2-propanols and their use as beta-adrenergic blockers” (priority 1989, dated 1991)
Read-outs that look alike come from different tables or passages of the source. Blank lines part the entries; values can stand above or below the compound they belong to.

What was measured:
[1] = tested on: rabbit cornea (intraocular enzymes); type: in vivo
Experimental: The tissue was homogenized in an alkaline buffer (pH 10.0) to give 10% (w/v) homogenate, and extracted twice with equal volumes of methylene chloride/diethyl ether mixture (1:4, v/v) by shaking for 15 minutes. The organic layer was separated, then re-extractedwith an equal volume of aqueous 0.1M hydrochloric acid solution. The aqueous phase was made alkaline (pH 10.0) and extracted with methylene chloride/diethyl ether, the organic layer was transferred to a deactivated glass vial, and the solvent was evaporated at reduced pressure under nitrogen stream. The residue was dissolved in 0.01M hydrochloric acid solution and analyzed by high-performance liquid chromatography (HPLC). A Supelcosil LC-8-DB analytical column (7.5 cm×4.6 mm i.d., 3 μm particle size) and mobile phase (1.5 mL/min flow rate) consisting of 30% acetonitrile in an aqueous buffer solution of 0.02M monobasic potassium phosphate (adjusted to pH 3.0 with phosphoric acid) and 0.01 (v/v) triethylamine. UV detection at 280 nm was applied. […] The same experiment was carried out by administering 1-(isopropylamino)-3-(2-allylphenoxy)-2-propanone oxime hydrochloride salt in 2% (w/v) aqueous solution. […]

rabbit eyes = assay: Local action of the drugs on the eyes (irritation, congestion, redness, lacrimation); type: in vivo, rabbit (male New Zealand albino)
[2] = tested on: resting heart rate of rats; assay: Effect on resting heart rate in rats; type: in vivo, rat (male Sprague-Dawley); conditions: 6 mg/kg i.v. (Example 6)
Experimental: (§1) Groups of seven male Sprague-Dawley rats weighing 150-250 g were used. Each animal was anesthetized with sodium pentobarbital (50 mg/kg) and the jugular vein was cannulated with PE50 tubing. This cannula was subcutaneously threaded around the neck and exteriorized dorsally. The cannula was filled with heparin solution ([…]) and sealed with a solid 22-gauge stylet. Animals were housed in individual stainless steel cages and at least 24 hours were allowed for recovery from the surgery. Food and water were provided ad libitum. On the day of the experiment, the heart rate of each rat was monitored with a plethsmograph and the data recorded on a Physioscribe II recorder. One hour was allowed as an equilibration period before any drugs were administered. Drugs were dissolved in normal saline as 0.3% solution and were administered intravenously at a dose of 6 mg/kg. The resting heart rate was then recorded after 1, 3, 5, 10 and 15 minutes following i.v. injection. […] A control group of seven animals was intravenously administered saline solution and was treated exactly in the same manner as the drug-treated groups. The significance of the difference between the effect of saline solution and the drugs under investigation on the resting heart rate and on isoprenaline tachycardia was analyzed using the student's "t" test. Values are given as mean ±S.E. of the mean. […] (.) carteolol HCl, 1c; .circle. propranolone ketoxime HCl, 6a; (.gradient.) timolone ketoxime oxalate, 6b; (Δ) N-isopropyl timolone ketoxime HCl, 6d; carteolone oxime HCl, 6c; and (---) saline solution. […] Drugs were administered to groups of 5 rats using a stomach tube and the heart rate was recorded for 1 hour. […] A control group of 5 rats was treated exactly in the same manner after the oral administration of the appropriate volume of saline solution.

[3] = tested on: Intraocular Pressure (IOP) of Rabbits; assay: Effect on the Intraocular Pressure (IOP) of Rabbits; type: in vivo, rabbit (male New Zealand albino); conditions: for ocular hypotensive activity compared with parent β-blocker: same dose levels; for ocular hypotensive activity compared with parent β-blocker / ocular hypotensive activity (in words): rabbits; for ocular hypotensive activity (in words): topical, dose levels used
Experimental: The animals were kept in individual cages with free access to food and water. Intraocular pressure was measured using a Digilab model 30R pneumatonometer. The pneumatonometer readings were checked at least twice a day using the Digilab calibration verifier. All measurements were obtained from unrestrained, unanesthetized rabbits. One drop of 0.5% propacaine (Ophthetic-Allergen Pharmaceuticals, Inc.) diluted 1:2 with saline was instilled in each eye immediately prior to IOP measurement. Drugs were administered as 1 or 2.5% solution in buffer pH 7.4 or in saline in both eyes of a group of at least four rabbits. Another group of at least three rabbits served as control and was administered the carrier only. […] Values are given as means ± standard error (S.E.) of the mean. The significance of the change was determined using the student's t-test.

[4] = tested on: isoprenaline-induced tachycardia; assay: Effect on isoprenaline-induced tachycardia in rats (β-adrenergic antagonist activity); type: in vivo, rat (male Sprague-Dawley); conditions: rats; 6 mg/kg i.v.; isoprenaline 50 μg/kg s.c.; FIG. 1
Experimental: as §1

[5] = tested on: IOP of rabbits, treated eye; assay: Unilateral administration, IOP of rabbits; type: in vivo, rabbit; conditions: 0.5% and 1.0% solution in saline, one eye
Experimental: The animals were kept in individual cages with free access to food and water. Intraocular pressure was measured using a Digilab model 30R pneumatonometer. The pneumatonometer readings were checked at least twice a day using the Digilab calibration verifier. All measurements were obtained from unrestrained, unanesthetized rabbits. One drop of 0.5% propacaine (Ophthetic-Allergen Pharmaceuticals, Inc.) diluted 1:2 with saline was instilled in each eye immediately prior to IOP measurement. Drugs were administered as 1 or 2.5% solution in buffer pH 7.4 or in saline in both eyes of a group of at least four rabbits. Another group of at least three rabbits served as control and was administered the carrier only. IOP was recorded after 30 and 60 minutes and then after 2, 3, 4, 6 and 8 hours following the drug or carrier administration. Values are given as means ± standard error (S.E.) of the mean. The significance of the change was determined using the student's t-test.
The unilateral administration of propranolol oxime hydrochloride 6a was subsequently studied at two different concentrations, 0.5% and 1.0%. Drugs were administered as 0.5% or 1.0% solution in saline in one of the eyes of each animal in a group of five rabbits. The untreated eye of each rabbit served as a control and received vehicle only. IOP was recorded as described above. […]

Hygroscopicity = type: physicochemical; conditions: crystals
Experimental: In a 50 mL round-bottomed flask was placed a solution of oxalic acid (0.20 g, 2.22 mmole) in ether (10 mL). To this solution was added a solution of 5b (0.43 g, 1.3 mmole) in ether. The mixture was stirred at room temperature for 1 hour. The white non-hygroscopic crystals were filtered and dried in vacuo. Yield 0.53 g (97%), m.p. 165°-166° (dec.). NMR (CDCl3) δ 5.3 (s, 2H), 3.9-3.7 (m, 4H), 3.6-3.4 (m, 6H), 1.1 (s, 9H). Anal. (C18 H25 O7 N5), C,H,N.

[6] = Spontaneous isomerization of HCl salts of oximes (I'); type: physicochemical; conditions: HCl salts in solution
Description: Spontaneous isomerization of HCl salts of compounds of formula (I') was also observed in solution; it was not observed in oxalates or bases of (I'). […] Acid-catalyzed isomerization was in most cases found to result in formation of the opposite isomers in solutions and in suspensions, respectively. In suspension, clearly the less soluble isomer is forming.

[7] = Table 3, 1% solution, time zero

Compound: C=CCc1ccccc1OCC(CNC(C)C)=NO.Cl [1-(isopropylamino)-3-(2-allylphenoxy)-2-propanone oxime hydrochloride]
- metabolites identified in cornea ([1]; topical, 2% (w/v) aqueous solution): showed the presence of the two oxime isomers, the corresponding ketone 1-(isopropylamino)-3-(2-allylphenoxy)-2-propanone, and the β-adrenergic blocker 1-(isopropylamino)-3-(2-allylphenoxy)-2-propanol(alprenolol)

Compound: CC(C)NCC(COc1cccc2ccccc12)=NO.Cl [Propranolone oxime HCl 6a, 1-(Isopropylamino)-3-(1-naphthyloxy)-2-propanone oxime hydrochloride]
- irritant action, unilateral administration (rabbit eyes; 0.5% and 1.0% solution in saline, one eye): No irritant action was noted
- ocular irritation (rabbit eyes; 1% and 2.5%, both eyes, rabbits): completely devoid of the ocular irritation
- activity on resting heart rate (negative chronotropic action) [2]: highest activity
- % change after treatment (IOP) ([3]; 1% solution, 30 min.): -3.23%
- IOP, treated ([3]; 1% solution, 30 min.): 26.9 ± 0.58 mm/Hg
- % change after treatment (IOP) ([3]; 1% solution, 60 min.): -11.51%
- IOP, treated ([3]; 1% solution, 60 min.): 24.0 ± 0.60 mm/Hg
- % change after treatment (IOP) ([3]; 1% solution, 2 hrs.): -15.82%
- IOP, treated ([3]; 1% solution, 2 hrs.): 23.4 ± 0.51 mm/Hg
- % change after treatment (IOP) ([3]; 1% solution, 3 hrs.): -16.18%
- IOP, treated ([3]; 1% solution, 3 hrs.): 23.3 ± 0.35 mm/Hg
- % change after treatment (IOP) ([3]; 1% solution, 4 hrs.): -20.14%
- IOP, treated ([3]; 1% solution, 4 hrs.): 22.2 ± 0.42 mm/Hg
- % change after treatment (IOP) ([3]; 1% solution, 6 hrs.): -7.08%
- IOP, treated ([3]; 1% solution, 6 hrs.): 25.8 ± 0.56 mm/Hg
- % change after treatment (IOP) ([3]; 1% solution, 8 hrs.): +0.50%
- IOP, treated ([3]; 1% solution, 8 hrs.): 27.9 ± 0.62 mm/Hg
- % change after treatment (IOP) ([3]; 1% solution, time zero): 0.00%
- IOP, treated ([3]; 1% solution, time zero): 27.8 ± 0.62 mm/Hg
- % change after treatment (IOP) ([3]; 2.5% solution, 30 min.): +1.92%
- IOP, treated ([3]; 2.5% solution, 30 min.): 26.5 ± 0.63 mm/Hg
- % change after treatment (IOP) ([3]; 2.5% solution, 60 min.): -10.00%
- IOP, treated ([3]; 2.5% solution, 60 min.): 23.4 ± 0.55 mm/Hg
- % change after treatment (IOP) ([3]; 2.5% solution, 2 hrs.): -13.08%
- IOP, treated ([3]; 2.5% solution, 2 hrs.): 22.6 ± 0.43 mm/Hg
- % change after treatment (IOP) ([3]; 2.5% solution, 3 hrs.): -18.46%
- IOP, treated ([3]; 2.5% solution, 3 hrs.): 21.2 ± 0.28 mm/Hg
- IOP, treated ([3]; 2.5% solution, 4 hrs.): 20.4 ± 0.34 mm/Hg
- % change after treatment (IOP) ([3]; 2.5% solution, 6 hrs.): -9.23%
- IOP, treated ([3]; 2.5% solution, 6 hrs.): 23.6 ± 0.48 mm/Hg
- % change after treatment (IOP) ([3]; 2.5% solution, 8 hrs.): -0.77%
- IOP, treated ([3]; 2.5% solution, 8 hrs.): 25.8 ± 0.65 mm/Hg
- % change after treatment (IOP) ([3]; 2.5% solution, time zero): 0.00%
- IOP, treated ([3]; 2.5% solution, time zero): 26.0 ± 0.48 mm/Hg
- ocular hypotensive activity compared with parent β-blocker [3]: much more pronounced and prolonged than that of propranolol itself
- ocular hypotensive activity (in words) [3]: has shown the highest activity at both tested concentration levels, 1 and 2.5%
- β-adrenergic antagonist activity against isoprenaline-tachycardia [4]: most effective
- decrease in IOP, unilateral administration [5]: Significant decrease in the IOP was observed at both levels, only in the treated eye
- metabolites identified in cornea ([1]; rabbit, in vivo): Peaks were identified as the E- and Z-isomers of the ketoxime administered, as the corresponding ketone 1-(isopropylamino)-3-(naphthyloxy)-2-propanone, and as the β-adrenergic antagonist 1-(isopropylamino)-3-(naphthyloxy)-2-propanol(propranol)

- hygroscopicity (Hygroscopicity): non-hygroscopic
Compound: CC(C)(C)NCC(COc1nsnc1N1CCOCC1)=NO.O=C(O)C(=O)O [Timolone oxime oxalate 6b, 1-(tert-Butylamino)-3-[(4-morpholino-1,2,5-thiadiazol-3-yl)oxy]-2-propanoneoxime oxalate]
- activity on resting heart rate (negative chronotropic action) [2]: highest activity
- % change after treatment (IOP) ([3]; Table 3, 1% solution, 30 min.): -2.43%
- IOP, drug-treated ([3]; Table 3, 1% solution, 30 min.): 27.75 ± 0.68 mm/Hg
- % change after treatment (IOP) ([3]; Table 3, 1% solution, 1 hr.): -14.56%
- IOP, drug-treated ([3]; Table 3, 1% solution, 1 hr.): 24.30 ± 0.63 mm/Hg
- % change after treatment (IOP) ([3]; Table 3, 1% solution, 2 hr.): -15.61%
- IOP, drug-treated ([3]; Table 3, 1% solution, 2 hr.): 24.00 ± 0.44 mm/Hg
- % change after treatment (IOP) ([3]; Table 3, 1% solution, 3 hr.): -11.64%
- IOP, drug-treated ([3]; Table 3, 1% solution, 3 hr.): 25.13 ± 0.96 mm/Hg
- IOP, drug-treated ([3]; Table 3, 1% solution, 4 hr.): 26.93 ± 0.48 mm/Hg
- % change after treatment (IOP) ([3]; Table 3, 1% solution, 5 hr.): -5.49%
- IOP, drug-treated ([3]; Table 3, 1% solution, 5 hr.): 26.88 ± 0.52 mm/Hg
- % change after treatment (IOP) ([3]; Table 3, 1% solution, 6 hr.): +1.20%
- IOP, drug-treated ([3]; Table 3, 1% solution, 6 hr.): 28.78 ± 0.91 mm/Hg
- % change after treatment (IOP) ([3]; Table 3, 1% solution, 8 hr.): -7.42%
- IOP, drug-treated ([3]; Table 3, 1% solution, 8 hr.): 26.33 ± 0.40 mm/Hg
- % change after treatment (IOP) [3, 7]: 0.00%
- IOP, drug-treated [3, 7]: 28.44 ± 0.63 mm/Hg
- ocular hypotensive activity compared with parent β-blocker [3]: faster in its onset and shorter in its duration than timolol 1b itself
- ocular hypotensive activity (in words) [3]: significant ocular hypotensive activity
- β-adrenergic antagonist activity against isoprenaline-tachycardia [4]: most effective

- spontaneous isomerization [6]: no isomerization of Il was observed
Compound: Cc1ccc(Cl)c(OCC(CNC(C)(C)C)=NO)c1 [Il]
